Values of other authors in patent US11090329B2, “Method and composition for treating gastro-esophageal disorders” (priority 2012, dated 2021).

Test system: esophagitis caused by chemo-radiotherapy
Details: patients with advanced stage III non-small-cell lung cancer

O=C(O[C@@H]1Cc2c(O)cc(O)cc2O[C@@H]1c1cc(O)c(O)c(O)c1)c1cc(O)c(O)c(O)c1 [EGCG, epigallocatechin gallate A]
esophagitis caused by chemo-radiotherapy: reduce esophagitis
